Experimental findings from patent US20240124410A1, “SMALL MOLECULES AND THEIR USE AS MALT1 INHIBITORS” (University of Pittsburgh - Of the Commonwealth System of …, priority 2021, published 2024) are described below.

Each structure is given as a SMILES string.

The target of one assay is T1, CHRM2 (Homo sapiens, UniProt P08172).
T1 construct: Eurofins
T1 sequence (P08172 1-466): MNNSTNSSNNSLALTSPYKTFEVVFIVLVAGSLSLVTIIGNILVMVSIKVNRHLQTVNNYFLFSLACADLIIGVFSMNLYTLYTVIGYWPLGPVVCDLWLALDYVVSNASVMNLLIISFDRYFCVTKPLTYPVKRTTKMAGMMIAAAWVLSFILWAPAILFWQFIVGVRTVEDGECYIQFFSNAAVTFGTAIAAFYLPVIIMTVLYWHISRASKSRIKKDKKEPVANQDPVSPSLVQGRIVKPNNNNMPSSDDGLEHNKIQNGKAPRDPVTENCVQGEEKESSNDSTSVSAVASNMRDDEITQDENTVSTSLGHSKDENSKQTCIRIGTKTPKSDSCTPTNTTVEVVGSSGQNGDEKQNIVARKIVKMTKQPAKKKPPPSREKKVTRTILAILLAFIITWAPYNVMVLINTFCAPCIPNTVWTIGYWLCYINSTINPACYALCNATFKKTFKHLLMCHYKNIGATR
Description: Eurofins SAFETYscan 78-target panel, off-target effects, CHRM2. The class given is biochemical. Conditions: antagonist / blocker / inhibitor mode. On the procedure:
(§1) FIG. 9. Table summarizing the Eurofins analysis of potential off-target effects of M1i-124. […] values above 10 μM are generally considered to be acceptable. FIG. 10. Representative hematoxylin and eosin (H&E) staining of organ sections (lung, heart, kidney, liver and adrenal) from control and M1i-124 treated mice described in FIG. 6.
(§2) Studies were performed using the services of Touchstone Biosciences and Eurofins Pharma Discovery Services. […] All blood samples (30-50 ul per sample) were taken via tail vein at 5, 15, and 30 minutes, and 1, 2, 4, 6, 8, and 24 hours after dosing. Blood samples are collected in Greiner MiniCollect K2 EDTA tubes, placed on ice, and within 30 minutes, centrifuged at 15,000 g for 5 minutes to obtain plasma samples. All plasma samples are stored at −70° C. until analysis. Plasma samples were prepared for analysis by LC-MS/MS, and key PK parameters, including terminal half-life (t 112), initial plasma concentration (C0), area under the plasma concentration vs. time curve (AUC), volume of distribution at steady-state (Vss), total plasma clearance (CLp), and mean residence time (MRT), were measured.
(§3) Assay details are available through Eurofins.

The target of another assay is T2, OPRM1 (Homo sapiens, UniProt P35372).
T2 construct: Eurofins
Description: Eurofins SAFETYscan 78-target panel, off-target effects, OPRM1. The class given is biochemical. Conditions: antagonist / blocker / inhibitor mode. On the procedure:
as §1, §2, §3

Assay [1] relates to PMA/iono-induced transcription of interleukin 2 (IL-2). Description: IL-2 transcription in Jurkat T cells (quantitative RT-PCR). The class given is cell-based. The following applies: compound at 1 μM. The procedure: The DLBCL cell lines, OCI-Ly1, OCI-Ly3, and OCI-Ly7, were provided by Dr. Mark Minden (University Health Network, Toronto, Ontario, Canada). TMD8 cells were provided by Dr. Louis Staudt (NCI, NIH). OCI-Ly1 and OCI-Ly7 cells were cultured in Iscove's Modified Dulbecco's Medium (IMDM) supplemented with 10% FBS. OCI-Ly3 cells were cultured in IMDM supplemented with 20% FBS. TMD8 and Jurkat T cells were cultured in RPMI1640 medium with 10% FBS. HEK293T cells were cultured in DMEM medium with 10% FBS. All media were supplemented with 100 U/ml penicillin streptomycin. Stimulation of Jurkat cells was conducted by adding 5 ng/ml of phorbol 12-myristatel3 acetate (PMA)(Sigma-Aldrich) and 1μM ionomycin (Calbiochem), or by adding 5-10 μL/mL of ImmunoCult Human CD3/CD28 ([…] Technologies).
Total RNA extraction was performed using RNeasy Plus Mini Kit (Qiagen Cat #74136). 1 ng RNA was transcribed into cDNA using High-Capacity cDNA Reverse Transcription Kit (Applied Biosystems Cat #4368814) according to manufacturer's instructions. RT-PCR reactions were performed using TaqMan gene expression probe sets.

Assay [2] deals with IL-6 and IL-10 secretion in OCI-Ly3 cells. Description: IL-6 and IL-10 secretion by OCI-Ly3 cells (ELISA). The class given is cell-based, human. On the procedure:
Expression of cytokines from cell culture supernatants was measured 24h after treatment with 0, 0.01, 0.03, 0.1, 0.3, 1, or 3 uM of compounds using the following ELISA kits according to the manufacturer's instructions: Human IL-2 ELISA (BioLegend Cat #431804), Human IL-6 ELISA (BioLegend Cat #430504), and Human IL-10 ELISA (BioLegend Cat #430604).
(In general: An ELISA detects its analyte on a solid surface through an enzyme-linked reagent.)

A word on the IC50: it is the concentration that inhibits the measured activity by half.

T2 sequence (P35372 whole entry): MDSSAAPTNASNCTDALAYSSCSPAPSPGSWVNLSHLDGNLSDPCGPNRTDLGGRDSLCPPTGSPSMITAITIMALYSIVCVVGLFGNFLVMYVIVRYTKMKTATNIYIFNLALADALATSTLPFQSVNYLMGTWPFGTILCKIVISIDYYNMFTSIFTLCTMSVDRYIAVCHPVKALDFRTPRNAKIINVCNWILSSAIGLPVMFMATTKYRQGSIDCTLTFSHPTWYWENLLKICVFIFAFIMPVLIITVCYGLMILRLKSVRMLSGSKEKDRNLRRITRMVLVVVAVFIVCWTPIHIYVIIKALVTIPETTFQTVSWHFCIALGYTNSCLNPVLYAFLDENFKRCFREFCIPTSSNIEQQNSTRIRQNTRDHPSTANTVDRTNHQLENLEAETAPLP

As to `O=S(=O)(NCc1ccc2c(c1)OCO2)c1ccc(Cc2ccc(S(=O)(=O)NCc3ccc4c(c3)OCO4)cc2)cc1` [M1i-124], the IC50 at CHRM2 was found to be 1200 nM; at OPRM1, 3.7 µM.

For `COc1ccc(CNS(=O)(=O)c2ccc(Cc3ccc(S(=O)(=O)NCc4ccc(OC)cc4)cc3)cc2)cc1` [M1i-124d1], the “Transcription of interleukin 2 (IL-2)” value in assay [1] is reported as “inhibit”. Besides, in assay [2], the IL-6 secretion result was “inhibit IL-6 and IL-10 secretion in a concentration-dependent manner”; the IL-10 secretion entry is “inhibit IL-6 and IL-10 secretion in a concentration-dependent manner”.
